{"source": "patent US20090041820A1", "about": "“Functional polymer compositions” (priority 2007, published 2009)", "key": {"[1]": {"assay": "Solubility of triclosan in PAO carrier fluid", "format": "physicochemical", "details": "PAO without ester"}, "[2]": {"assay": "PAO/ester/triclosan migration from PP strips (weight loss, toluene wash, surface observation)", "format": "physicochemical", "details": "fast cooled PP strips", "description": "Preparation of sample 24892-114-0 to 7: The polypropylene described above (85% by weight) was melt blended in a mixer with 15 wt % triclosan stock solution as prepared in Table 2. The mixed polymer was then compression molded into 4″×4″ squares with less than 1 mm thickness. Two methods were used to prepare the PP strip with very different results. One method includes fast cooling after the compression molding (quench sample with a 7° C. cooling surface). The sample strip had PAO fluid on surface indicating fast PAO migration after a few hours at room temperature. The other method included slow cooling after the compression molding (cool sample in ambient air, 23° C.). Sample strip appeared very dry with no apparent PAO fluid on surface. When this sample was put into 70° C. oven, slight oiliness was observed on the surface.\nTable 4 below depicts the PAO/ester/Triclosan migration from the PP strips as measured by weight loss in 7 days.\nFor fast cooled PP strips, there was up to 1.8 wt % weight loss by toluene wash due to PAO/ester/Triclosan migration to the surface."}}, "data": [{"smiles": "Oc1cc(Cl)ccc1Oc1ccc(Cl)cc1Cl", "note": "[Triclosan]", "values": [{"measurement": "solubility in PAO alone", "setting": "[1]", "value": "low solubility"}, {"measurement": "migration to the surface, confirmed by GC analysis of the toluene wash", "setting": "[2]", "value": "migrated to the surface"}]}]}
